Data: patent publication US20050000154A1, “Apparatus and methods for enhanced plant and lawn growth using alkane injection” (Global BioSciences, Inc., priority 2001, published 2005)
Where “and” joins values, the source holds several entries; their conditions need not be identical. Equal values may be shown once. Read-outs that look alike come from different tables or passages of the source.

How the values were obtained:
[1] = system: sweet corn, variety Sugar Dots; conditions: for Seedling Height: two seedlings
Protocol: (§1) The tubing intersected the vessel through the diameter at a height of 1.5 cm above the base. […] Each vessel was filled with approximately 523 cm^3 of Iowa Crop Soil (soil depth =5.5 cm) that had been collected from an Iowa commercial cornfield. The soil in each vessel was tested for pH using a Chemetrics pH meter dipped in a mixture of 40 ml distilled water and 100 grams of soil.
(§2) Each vessel was seeded with two seeds of sweet corn, variety Sugar Dots, placed (illustrated in FIG. 9) at a depth of 2.54 cm below soil surface. Each vessel was then watered with 100 ml spring water and positioned on its own drainage tray on a shelf approximately 10 cm below two 33 watt grow light tubes (no sunlight) equipped with a timer set for 16 hours light on, 6 hours light off. White reflective covering was placed on the wall immediately behind the samples, with an aluminum foil hood extending over the light fixture to reflect light downward onto the vessels.

[2] = system: Gladioli bulb; conditions: liquid butane injected into the rhizosphere, halted Day 19
Protocol: Each vessel was filled with approximately 800 cm^3 of Pro-Mix® Potting Soil 214.
(§3) Each vessel contained one Gladioli bulb 216 placed at a depth of 10 cm below soil surface. FIG. 21 is a photograph showing the bulbs and vessels. Each vessel was then watered with 100 ml spring water and positioned on its own drainage tray on a shelf approximately 60 cm below two 33 watt grow light tubes (no sunlight) equipped with a timer set for 16 hours light on, 6 hours light off.

[3] = system: sunflower (Sun Gold-Golden Yellow Double) seed; conditions: for Seedling Height / germination: sterilized Caribbean Beach Sand
Protocol: Four vessels were filled with approximately 800 cm^3 of Paver Construction Sand (non-sterile) and two vessels contained sterilized Caribbean beach sand (see FIG. 23).
as §3, with “one sunflower (Sun Gold-Golden Yellow Double) seed” for “one Gladioli bulb 216”, “of 5.0” for “of 10”, “surface.” for “surface. FIG. 21 is a photograph showing the bulbs and vessels.”

[4] = system: Gladioli bulb
Protocol: Each vessel was filled with approximately 800 cm^3 of Pro-Mix® Potting Soil (see FIGS. 20 and 21).
as §3, with “bulb” for “bulb 216”, “surface.” for “surface. FIG. 21 is a photograph showing the bulbs and vessels.”

[5] = system: sweet corn, variety Sugar Dots; conditions: for Seedling Height: two seedlings; remark: listed apart in the source
Protocol: as §1, with “3.5” for “1.5”, “902” for “523”, “=9.5” for “=5.5”
as §2, with “Dots, (using the seed positions shown” for “Dots, placed (illustrated”, “9) placed” for “9)”, “below three” for “below two”

[6] = Table 7 Day No. 6 (final day), Butane Bulb 1 and 2

CCCC [Butane, n-butane]
Seedling Height ([1]; Day No. 6, n-butane injected into root zone): 0.5 cm and 0.8 cm
Seedling Height ([1]; Day No. 7): 4.0 cm and 4.5 cm
Seedling Height ([1]; Day No. 8): 7.0 cm and 6.0 cm
Seedling Height ([1]; Day No. 9 (final day)): 11.0 cm and 6.8 cm
Seedling Height ([1]; Day No. 9 (final day), listed as butane): 11 cm and 6.8 cm
root spread compared with control plants ([1]; seen through clear vessels): greater and more complex degree horizontally
effect of liquid butane injection on growing plants ([2]; listed as Liquid butane): into the rhizosphere killed the
effect of liquid butane injection on growing plants ([2]; listed as liquid butane): killed
root development compared with control plant ([3]; Day 23, Paver Sand, unearthed): thicker and more robust
Seedling Height ([3]; Day No. 23, Paver Sand (non-sterile), two plants): 20.0 cm
Seedling Height / germination ([3]; Day No. 23): no seed growth or
Seedling Height / germination ([3]; Day No. 23, listed as butane): No seed growth or germination
Seedling Height, secondary shoot ([4]; Table 7 Day No. 1, Butane Bulb 2): Secondary shoot 3.0 cm
Seedling Height, main shoot [4, 6]: 27.0 cm and 29.0 cm
Seedling Height, secondary shoot [4, 6]: 14.0 cm and 23.0 cm
root development compared with control plant ([4]; butane enrichment for 17 days, bulbs unearthed): greater
bulb shoot bifurcation ([4]; butane gas injection, shoots directly from the bulb sphere): conditioned to grow two plants
average height taller than the control corn plant ([5]; Day 16): 55%
average growth in height ([5]; Day 16, average of two plants): 23.3 cm
Seedling Height ([5]; Day No. 5): 0.5 cm and 1.0 cm
Seedling Height ([5]; Day No. 6): 3.0 cm, 3.0 cm
Seedling Height ([5]; Day No. 7): 4.0 cm, 4.0 cm
Seedling Height ([5]; Day No. 8): 6.0 cm and 5.7 cm
Seedling Height ([5]; Day No. 9): 8.0 cm and 7.2 cm
Seedling Height ([5]; Day No. 10): 11.0 cm and 9.1 cm
Seedling Height ([5]; Day No. 11): 16.0 cm and 12 cm
Seedling Height ([5]; Day No. 12): 18.0 cm and 15.5 cm
Seedling Height ([5]; Day No. 13): 19.0 cm and 16.7 cm
Seedling Height ([5]; Day No. 14): 20.1 cm and 17.3 cm
Seedling Height ([5]; Day No. 15): 22.0 cm and 18.0 cm
Seedling Height ([5]; Day No. 16): 27.0 cm and 19.6 cm
time of sprouting compared with control plant ([5]; in vivo): three days earlier
stem thickness ([5]; last day of growth (Day 16), taller plant, shorter plant): 0.5 cm and 0.3 cm
average growth rate ([5]; over the sixteen-day period, average of two plants): 1.45 cm per day
root branch length ([5]; seen through clear vessels): up to 3 cm
faster growth rate than the control plant ([5]; sixteen-day period): 54%
seed sprouting ([5]; two seeds planted): sprouted into seedlings
